Experimental data reported in publication PMC4114533, “Synthesis, Anti-tubulin and Antiproliferative SAR of Steroidomimetic Dihydroisoquinolinones” (Chemmedchem, 2014).
Where two headings read alike, the source gives them in different places.

Assays:
Bovine brain tubulin [1] = test: Tubulin polymerisation (assembly) assay; format: biochemical; details: 10 μM tubulin, mean ±SD of at least two determinations; read-out: TP IC50 (tubulin polymerisation)
Procedure: (§1) Tubulin assays: Bovine brain tubulin, prepared as described previously,[16] was used in studies presented here. Assembly IC50 values were determined as described in detail elsewhere.[17] Briefly, 1.0 mg mL^−1 (10 μM) tubulin was pre-incubated without GTP with varying compound concentrations for 15 min at 30 °C. Reaction mixtures were placed on ice, and GTP (final concentration, 0.4 mM) was added. The reaction mixtures were transferred to cuvettes, held at 0 °C in a recording spectrophotometer. Baselines were established at 0 °C, and increase in turbidity was followed for 20 min following a rapid (<30 s) jump to 30 °C. Compound concentrations required to decrease the turbidity increase by 50 % were determined. The method for measuring inhibition of the binding of [^3H]colchicine to tubulin was described in detail previously.[18] Reaction mixtures contained 0.1 mg mL^−1 (1.0 μM) tubulin, 5.0 μM [^3H]colchicine, and potential inhibitor at 5.0 μM. […] A minimum of two experiments were performed with each compound.

[2] = test system: MDA MB-231 human breast cancer cells; test: Antiproliferative assay (WST-1, 96 h), MDA MB-231; format: cell-based; details: MDA MB-231 cells, WST-1, mean of three determinations
Procedure: (§2) Cell lines: DU-145 (brain metastasis carcinoma of the prostate) and MDA MB-231 (metastatic pleural effusion of breast adenocarcinoma) established human cell lines were obtained from ATCC Global Bioresource Center. Cells were maintained in a 5 % CO2 humidified atmosphere at 37 °C in RPMI-1640 medium, supplemented with 10 % fetal bovine serum, penicillin, (100 U mL^−1), and streptomycin (0.1 mg mL^−1). The effect of drugs on tubule formation was assessed using an angiogenesis kit (TCS-Cellworks).
(§3) Antiproliferative assays: DU-145 and MDA MB-231 cells were seeded into 96-well microtitre plates (5000 cells per well) and treated with compound (10^−9–10^−4 M) or with vehicle control. At 96 h post-treatment, live cell counts were determined by WST-1 cell proliferation assay (Roche, Penzberg, Germany), as per the manufacturer’s instructions. Viability results were expressed as a percentage of mean control values resulting in the calculation of the 50 % growth inhibition (GI50). All experiments were performed in triplicate.

[3] = test system: HUVECs within a matrix of human diploid fibroblasts of dermal origin; test: In vitro model of angiogenesis (tubule formation, co-culture); format: cell-based; details: 25 nM and 50 nM, VEGF-stimulated, quantified after 11 days
Procedure: Compounds 16 f and 17 f were also assayed for anti-angiogenic activity in an in vitro model of angiogenesis, wherein endothelial cells co-cultured in a matrix of human dermal fibroblasts are used to assess anti-angiogenic potential (Figure 2). When stimulated with VEGF the endothelial cells proliferate and migrate through the matrix to form tubule-like structures. The extent of tubule formation was quantified after 11 days as described elsewhere.[14] […] Quantification carried out by calculating total pixel length reflects the lack of tubule formation.
Cell lines: DU-145 (brain metastasis carcinoma of the prostate) and MDA MB-231 (metastatic pleural effusion of breast adenocarcinoma) established human cell lines were obtained from ATCC Global Bioresource Center. […] The effect of drugs on tubule formation was assessed using an angiogenesis kit (TCS-Cellworks).
Anti-angiogenic assays: HUVECs were cultured in a 24-well plate within a matrix of human diploid fibroblasts of dermal origin in optimised medium supplied by the company. […] The extent of tubule formation was then quantified, either manually by eye or using free software available through the National Institutes of Health website (NIH image [Mac version] from http://rsb.info.nih.gov/nih-image/download.html). […] After correcting for background the software counted the number of pixels representing tubules. […]

Bovine brain tubulin [4] = target: T1, Bovine brain tubulin (Bos taurus, UniProt P81947+Q6B856); test: Inhibition of [3H]colchicine binding to tubulin; details: mean ±SD; for inhibition at 5 µM: 5 μM inhibitor, 1.0 μM tubulin, 5.0 μM [3H]colchicine, read-out: CB [% inhib.] 5 μM inhibitor
T1 construct: from tissue; host or cells: bovine brain
T1 sequence (Q6B856 whole entry): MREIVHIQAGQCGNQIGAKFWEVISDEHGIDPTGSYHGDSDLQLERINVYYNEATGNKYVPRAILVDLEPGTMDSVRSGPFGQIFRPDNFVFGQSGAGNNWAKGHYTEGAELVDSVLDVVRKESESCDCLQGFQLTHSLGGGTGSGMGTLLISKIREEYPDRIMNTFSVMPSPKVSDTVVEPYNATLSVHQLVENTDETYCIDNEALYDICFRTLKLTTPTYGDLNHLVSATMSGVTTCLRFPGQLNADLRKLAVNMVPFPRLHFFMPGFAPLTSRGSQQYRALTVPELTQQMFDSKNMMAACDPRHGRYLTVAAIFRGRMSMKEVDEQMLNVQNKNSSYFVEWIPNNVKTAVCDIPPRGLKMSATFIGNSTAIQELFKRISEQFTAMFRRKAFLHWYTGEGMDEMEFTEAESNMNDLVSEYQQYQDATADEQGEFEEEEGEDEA
T1 sequence (P81947 whole entry): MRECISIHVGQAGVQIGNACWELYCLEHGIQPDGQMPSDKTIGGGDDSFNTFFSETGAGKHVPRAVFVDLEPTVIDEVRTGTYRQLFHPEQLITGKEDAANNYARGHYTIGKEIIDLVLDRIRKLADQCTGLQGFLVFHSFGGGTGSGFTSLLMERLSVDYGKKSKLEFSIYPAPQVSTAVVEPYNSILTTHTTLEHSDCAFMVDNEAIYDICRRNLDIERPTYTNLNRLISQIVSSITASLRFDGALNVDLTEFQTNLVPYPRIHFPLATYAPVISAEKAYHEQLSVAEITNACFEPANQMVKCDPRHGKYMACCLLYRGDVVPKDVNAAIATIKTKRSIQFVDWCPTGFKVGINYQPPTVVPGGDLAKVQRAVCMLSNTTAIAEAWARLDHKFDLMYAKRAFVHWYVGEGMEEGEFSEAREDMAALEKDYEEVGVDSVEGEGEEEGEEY
Procedure: as §1

[5] = test system: DU-145 human prostate cancer cells; test: Antiproliferative assay (WST-1, 96 h), DU-145; format: cell-based; details: for GI50: Homo sapiens, DU-145 cells, 96 h, WST-1, mean of three determinations
Procedure: as §2, §3

Bovine brain tubulin [6] = test system: Bovine brain tubulin; parameters: method as in PMID 20225862; details: data taken from the literature ref 3; read-out: TP IC50 (tubulin polymerisation); cited from earlier work
Bovine brain tubulin [7] = target: T1, Bovine brain tubulin; parameters: method as in PMID 20225862; details: data taken from the literature ref 3; cited from earlier work

Row | GI50 [2] | GI50 [5] | melting point | Compound | other results
1 | 0.161 µM | 0.215 µM | – | COc1cc(OC)cc(C(=O)N2CCc3cc(O)c(OC)cc3C2=O)c1 [16 f, 6-Hydroxy-2-(3,5-dimethoxybenzoyl)-7-methoxy-3,4-dihydroisoquinolin-1(2H)-one] | IC50 (Bovine brain tubulin [1]): 1.5 ± 0.1 µM; formation of tubule-like structures [3]: almost completely inhibits; inhibition at 5 µM (Bovine brain tubulin [4]): 81 ± 0.7%; fold more active than the 3′-methoxy derivatives ([5]; vs 3′-methoxy derivatives 16 b and 17 b): > 10 fold
2 | – | > 100 µM | 171 to 172 °C | COc1ccc(CN2CCc3cc(O)c(OC)cc3C2=O)cc1 [8 c, 6-Hydroxy-7-methoxy-2-(4-methoxybenzyl)-3,4-dihydroisoquinolin-1(2H)-one] | –
3 | – | – | – | COc1cc2c(cc1OS(N)(=O)=O)CC[C@@H]1[C@@H]2CC[C@]2(C)[C@@H](CC#N)CC[C@@H]12 [1 b] | IC50 (Bovine brain tubulin [6]): 1.3 ± 0.08 µM; CB [% inhib.] 5 μM inhibitor (Bovine brain tubulin [7]): 78±0.9%
4 | – | > 100 µM | 181 to 182 °C | COc1cccc(CN2CCc3cc(O)c(OC)cc3C2=O)c1 [8 b, 6-Hydroxy-7-methoxy-2-(3-methoxybenzyl)-3,4-dihydroisoquinolin-1(2H)-one] | –
5 | > 100 µM | 25 µM | 171 to 172 °C | COc1cc2c(cc1OS(N)(=O)=O)CCN(C(=O)c1cccc(C#N)c1)C2=O [17 c, 2-(3-Cyanobenzoyl)-7-methoxy-6-sulfamoyloxy-3,4-dihydroisoquinolin-1(2H)-one] | –
6 | > 100 µM | > 100 µM | 236 to 239 °C | COC(=O)c1ccccc1S(=O)(=O)N1CCc2cc(O)c(OC)cc2C1=O [11 e, Methyl 2-((6-hydroxy-7-methoxy-1-oxo-3,4-dihydroisoquinolin-2(1H)-yl)sulfonyl)benzoate] | –
7 | > 100 µM | > 100 µM | 202 to 204 °C | COc1ccc(S(=O)(=O)N2CCc3cc(O)c(OC)cc3C2=O)cc1 [11 c, 6-Hydroxy-7-methoxy-2-((4-methoxyphenyl)sulfonyl)-3,4-dihydroisoquinolin-1(2H)-one] | –
8 | – | > 100 µM | 139 to 140 °C | COc1cccc(CN2CCc3cc(OS(N)(=O)=O)c(OC)cc3C2=O)c1 [9 b, 7-Methoxy-2-(3-methoxybenzyl)-6-sulfamoyloxy-3,4-dihydroisoquinolin-1(2H)-one] | –
9 | – | – | – | COc1ccc(/C=C\c2cc(OC)c(OC)c(OC)c2)cc1O [CA-4, combretastatin A-4, reference compound] | inhibition at 1 µM (Bovine brain tubulin [4]; 1 μM inhibitor, read-out: CB [% inhib.] 1 μM inhibitor): 90 ± 0.2%
10 | – | > 100 µM | 171 to 172 °C | COc1ccc(C(=O)N2CCc3cc(OS(N)(=O)=O)c(OC)cc3C2=O)cc1 [17 d, 2-(4-Methoxybenzoyl)-7-methoxy-6-sulfamoyloxy-3,4-dihydroisoquinolin-1(2H)-one] | antiproliferative activity (in words) ([5]; in vitro antiproliferative activity, result in words): inactive
11 | 0.275 µM | 0.166 µM | – | COc1cc2c(cc1OS(N)(=O)=O)CCN(C(=O)c1cc(OC)c(OC)c(OC)c1)C2=O [17 g, 7-Methoxy-2-(3,4,5-trimethoxybenzoyl)-6-sulfamoyloxy-3,4-dihydroisoquinolin-1(2H)-one] | IC50 (Bovine brain tubulin [1]): 1.2 ± 0.03 µM; inhibition at 5 µM (Bovine brain tubulin [4]): 85 ± 2%
12 | > 100 µM | > 100 µM | 170 to 173 °C | COc1cc2c(cc1OS(N)(=O)=O)CCN(S(=O)(=O)c1cccc(Cl)c1)C2=O [12 d, 2-((3-Chlorophenyl)sulfonyl)-7-methoxy-6-(sulfamoyloxy)-3,4-dihydroisoquinolin-1(2H)-one] | –
13 | 1.6 µM | 2.39 µM | 199 to 200 °C | COc1cc2c(cc1O)CCN(C(=O)c1ccc(OC)c(OC)c1)C2=O [16 e, 6-Hydroxy-2-(3,4-dimethoxybenzoyl)-7-methoxy-3,4-dihydroisoquinolin-1(2H)-one] | –
14 | – | – | – | CCc1cc2c(cc1OS(N)(=O)=O)CC[C@@H]1[C@@H]2CC[C@]2(C)[C@@H](OS(N)(=O)=O)CC[C@@H]12 [1 c] | IC50 (Bovine brain tubulin [6]): 1.3 ± 0.01 µM; CB [% inhib.] 5 μM inhibitor (Bovine brain tubulin [7]): 45±4%
15 | > 100 µM | > 100 µM | 195 to 197 °C | COc1cc2c(cc1OS(N)(=O)=O)CCN(S(=O)(=O)c1ccccc1OC)C2=O [12 a, 7-Methoxy-2-((2-methoxyphenyl)sulfonyl)-6-(sulfamoyloxy)-3,4-dihydroisoquinolin-1(2H)-one] | –
16 | > 100 µM | > 100 µM | 164 to 166 °C | COc1cccc(S(=O)(=O)N2CCc3cc(OS(N)(=O)=O)c(OC)cc3C2=O)c1 [12 b, 7-Methoxy-2-((3-methoxyphenyl)sulfonyl)-6-(sulfamoyloxy)-3,4-dihydroisoquinolin-1(2H)-one] | –
17 | – | – | – | COc1cc2c(cc1OS(N)(=O)=O)CC[C@@H]1[C@@H]2CC[C@]2(C)[C@@H](OS(N)(=O)=O)CC[C@@H]12 [1 a] | IC50 (Bovine brain tubulin [6]): 2.2 ± 0.3 µM; CB [% inhib.] 5 μM inhibitor (Bovine brain tubulin [7]): 28±3%
18 | 18.9 µM | 62.7 µM | – | COc1cc2c(cc1OCc1ccccc1)CCN(C(=O)c1cc(OC)c(OC)c(OC)c1)C2 [14 g, 6-Benzyloxy-7-methoxy-2-(3,4,5-trimethoxybenzoyl)-1,2,3,4-tetrahydroisoquinoline] | –
19 | 13 µM | > 100 µM | 181 to 186 °C | COC(=O)c1ccccc1S(=O)(=O)N1CCc2cc(OS(N)(=O)=O)c(OC)cc2C1=O [12 e, Methyl 2-((7-methoxy-1-oxo-6-(sulfamoyloxy)-3,4-dihydroisoquinolin-2(1H)-yl)sulfonyl)benzoate] | –
20 | > 100 µM | > 100 µM | 178 to 181 °C | COc1cc2c(cc1O)CCN(S(=O)(=O)c1cccc(Cl)c1)C2=O [11 d, 6-Hydroxy-7-methoxy-2-((3-chlorophenyl)sulfonyl)-3,4-dihydroisoquinolin-1(2H)-one] | –
21 | > 100 µM | > 100 µM | – | COc1cccc(S(=O)(=O)N2CCc3cc(O)c(OC)cc3C2=O)c1 [11 b, 6-Hydroxy-7-methoxy-2-((3-methoxyphenyl)sulfonyl)-3,4-dihydroisoquinolin-1(2H)-one] | –
